Source: US20110195910A1, “USE OF TOCOTRIENOL COMPOSITION FOR THE PREVENTION OF CANCER” (DAVOS LIFE SCIENCE PTE. LTD., priority 2008, published 2011)

Columns and labels:
MDA-MB-231 cells = assay: Flow cytometry, western blotting and RT-PCR, MDA-MB-231 cells; assay type: cell-based, human
Procedure: 1.1.3 Flow cytometry—Cell cycle distribution was examined using flow cytometry. Briefly, cells were harvested by trypsinization, fixed in 70% ethanol at 4° C. overnight, and then resuspended in PBS. After incubation at 4° C. for overnight, 2×10^6 cells were incubated with in 20 μg/ml propidium iodide (PI) and 2 mg RNaseA for 15 minutes at 37° C. Cells were then examined by BD SLRII cytometer and the results were analyzed using ModFit software (Becton Dickinson, Mountain View, Calif.). Data were expressed as the percentage of cell cycle distribution in the entire population.
1.1.5 Western blotting—Detailed protocols have been described previously and are known in the art. Briefly, cell lysates were prepared by suspending cell pellets in lysis buffer [50 mmol/l Tris-HCl (pH 8.0), 150 mmol/l NaCl, 1% NP40, 0.5% deoxycholate, 0.1% SDS, 1 mg/ml aprotinin, 1 μg/ml leupeptin and 1 mmol/l phenylmethylsulfonyl fluoride]. For nuclear protein extraction, NucBuster™ protein extraction kit was used. Protein concentration was measured using the DC Protein Assay kit (Bio-Rad, Hercules, Calif.). Equal amount of protein (30 μg) was loaded onto a 10% SDS polyacrylamide gel for electrophoresis and then transferred onto a polyvinylidene difluoride membrane (Amersham, Piscataway, N.J.). The membrane was then incubated with primary antibodies for 1 hr at room temperature against E-cadherin (BD Biosciences, Bedford, Mass.), α-catenin, β-catenin, γ-catenin, Id-1, Id-3, EGFR, phosphor-c-jun, phosphor-ATF2, cleaved PARP, vimentin, α-smooth muscle actin, twist (Santa Cruz Biotechnology, Calif.), phosphor-IkB-alpha (Ser32/36), phosphor-IKK alpha (Seri 80)/IKK beta (Ser181), phosphor-SAPK/JNK (Thr183/Tyr185) G9, SAPK/JNK, NF-kB p65 (5A5) (Cell Signaling Technology Inc, Beverly, Mass.), Snail (Abcam). After incubation with appropriate secondary antibodies, signals were visualized by ECL western blotting system (Amersham, Piscataway, N.J.). Expression of β-actin and histone H1 were assessed as an internal loading control for total cell lysate and nuclear protein lysate respectively.
3.1.5 DNA fragmentation assay—After 24 hrs incubation with gamma-T3, 3×10^6 MDA-MB-231 cells were harvested and suspended in lysis buffer [5 mM Tris-HCl (pH 8.0), 20 mM EDTA, and 0.5% (v/v) Triton X-100] for 60 min on ice. Samples were centrifuged, the supernatants were removed and incubated with 5 μl RNase A (10 μg/ml) at 37° C. for 40 min, and 1 ml of anhydrous ethanol was added. Tubes were placed at […] for 20 min and then centrifuged to pellet the DNA. DNA samples were analyzed by electrophoresis at 80 V for 3 hrs on a 2% agarose gel containing ethidium bromide (0.2 μg/ml) and visualized under UV illumination.
3.1.6 Terminal deoxynucleotidyltransferase-mediated deoxyuridine triphosphate nick end-labelling (TUNEL) assay—DNA strand breaks during apoptosis was examined using in situ cell death detection reagent (Roche Applied Science). Briefly, 1×10^6 cells were pretreated with gamma-T3 for 24 hrs. Thereafter, cells were incubated with reaction mixture for 60 min at 37° C. Stained cells were analyzed and captured by fluorescence microscope on glass slide.
3.1.7 Flow cytometry was carried out as described above under item 1.1.3. Matrigel-invasion assay was carried out as described above under item 1.1.4. Western blotting was carried out as described above under item 1.1.5.
3.1.8 Id-1 RT-PCR—Total RNA was isolated using Trizol® reagent according to the manufacturer's protocol (Invitrogen). cDNA was synthesized using the SuperScript™ First Strand Synthesis System (Invitrogen) and was then amplified by PCR with Id-1 specific primers (forward primer, Id1-S, 5′-CTCCAGCACGTCATCGACTA-3′ and reverse primer, Id1-AS,5′-AAC GCA TGC CGC CTC-3′). PCR cycling protocol was as follows: 30 cycles of 10 min at 95° C., 30 s at 95° C., 30 s at 55° C., 1 min at 72° C. and 10 min at 72° C. Glyceraldehyde 3-phosphate dehydrogenase was amplified as an internal control. […]

[1] = Pharmacokinetics of γ-tocotrienol in mice (serum, HPLC); assay type: in vivo, C57BL/6 black mice; conditions: 1 mg γ-T3 i.p.
Procedure: 4.1.4 Pharmacokinetics of γ-Tocotrienol in Mice—C57BL/6 black mice were purchased from The Jackson Laboratory (Bar Harbor, Me., USA). Forty 5-week old mice were given a single dose i.p injection containing 1 mg of γ-T3. Five mice were sacrificed at different time points (10 min, 30 min, 1 h, 3 h, 6 h, 24 h, 48 h and 72 h). Blood samples were collected through cardiac bleeding. To isolate the serum, blood samples were incubated at room temperature for 30 min, followed by centrifugation at 4400 rpm, 4° C. for 30 min. γ-T3 concentration in serum was analyzed using HPLC method below.
4.1.6 γ-Tocotrienol Extraction from Serums, Tumors and Organs—Serums were thawed and sonicated in an ultrasonic bath (Lab Companion, Vernon Hills, Ill., USA) for 5 min, followed by vortexing for 10 s. 100 μl of serum was transferred into IWAKI Pyrex glass tube (Jawa Tengah, Indonesia) containing 900 μl of water. For the tumors and organs preparation, the tissues were homogenized in 1 ml of water using borosilicate glass homogenizer (Fisher scientific, Pittsburgh, Pa.), followed by transferring to Pyrex glass tube. 5 μl of δ-T3 with purity 99% (100 mg of δ-T3 dissolved in 1 ml of ethanol) was used as an internal standard solution and was spiked into the mixture. The tube was vortexed for 10 s and sonicated for 2 min. 4 ml of the butylated hydroxytoluene (BHT) solution (5 mg of BHT in 100 ml of heptane) was added into the tube to minimize the oxidation of target analytes. Liquid-liquid extraction was performed by vortexing vigorously for 10 s. After liquid-liquid extraction, the tubes were centrifuged at 4000 rpm for 5 min in Heraeus Multifuge 3-SR Centrifuge (Newport Pagnell, Buckinghamshire, UK). 3.9 ml of the organic layer was transferred into another Pyrex tube. […]
4.1.7 Determination of γ-Tocotrienol level by high performance liquid chromatography—A normal phase of HPLC method was performed as a modification of procedures known in the art. […] The absorbance of γ-T3 was monitored with a […] set at an excitation wavelength of 290 nm and emission wavelength of 360 nm.

In the case of CC(C)=CCC/C(C)=C/CC/C(C)=C/CCC1(C)CCc2cc(O)c(C)c(C)c2O1 (centres unmarked) [γ-T3, 7,8-dimethyltocotrienol], the JNK phosphorylation (MDA-MB-231 cells; MDA-MB-231) is reported as “dose-dependent increase in JNK phosphorylation activities”, the “Src phosphorylation, protein level of Smad1/5/8, LOX and activated Fak” value (MDA-MB-231 cells; MDA-MB-231) is reported as “repressed in a dose dependent manner” and the “expression of Snail and Twist” value (MDA-MB-231 cells; MDA-MB-231) is reported as “downregulated”. For the same compound, the “nuclear level of NF-κB p65” value (MDA-MB-231 cells; MDA-MB-231) was “suppressed nuclear level of NF-κB p65 in a dose-dependent manner”, the “MAPK/ERK pathway (phosphorylation of Erk1/2, Mek1/2 and Elk1)” value (MDA-MB-231 cells; MDA-MB-231, 24 hours) was “activated” and the “activation of pro-apoptotic proteins (cleaved products)” value (MDA-MB-231 cells; MDA-MB-231, 24 hrs) was “activation of procaspase 3, 7, 8, 9 as well as PARP”. For the same compound, the “Id1 and Id3 expressions (EGF-R similar)” value (MDA-MB-231 cells; MDA-MB-231, increasing dosages) was “significantly suppressed to almost undetectable level”, the “sub-G1 cell population (flow cytometry)” value (MDA-MB-231 cells; gamma-T3 IC50-90, 24 hrs) was “induction of sub-G1 cell population” and the “time the plasma level remains constant” value [1] was “at least 72 hours”. The “plasma γ-T3 level, starting value” ([1]; before the fall) was 260 ppm and the “plasma γ-T3 level” value ([1]; within 30 min after administration) was 50 ppm.
